The values that follow are results of earlier work, collected in patent publication US8926994B2, “Mesoporous silicon particles for the presentation of tumor antigens and adjuvant for anti-cancer immunity” (The Methodist Hospital Research Institute, priority 2011, dated 2015).

For this data set, the system named is endothelial cells.

As to `N.N.[Cl][Pt][Cl]` [cis-platin], the “relative cell cycle composition / mitosis (propidium iodide DNA content)” value (12 and 24 hr, 10:1 microparticles:cell) is “inhibited cellular mitosis”. Besides, the “apoptotic volume (cell death)” value (flow cytometry) was “major accumulation of cell fragments”.
